Legend:
Test in all cases: NCI SRB growth inhibition (single dose 10 µM / five-dose)
Format in all cases: cell-based, human
CCRF-CEM = conditions: Homo sapiens
How it was run: (§1)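 SRB read-out. Plating density 5000–40,000 cells/well; Tz fixed at 24 h; 5 conc. (10-fold or ½ log) + control; TCA fix, 0.4% SRB/1% AcOH 10 min RT; % growth = (Ti−Tz)/(C−Tz)×100, or (Ti−Tz)/Tz×100 when Ti<Tz.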

SK-MEL-28 = conditions: Homo sapiens
How it was run: as §1

U251 = conditions: Homo sapiens, U-251
How it was run: as §1

KM12 = conditions: Homo sapiens
How it was run: as §1

MDA-MB-231/ATCC = conditions: Homo sapiens
How it was run: as §1

IGROV1 = conditions: Homo sapiens, IGROV-1
How it was run: as §1

PC-3 = conditions: Homo sapiens; PC-3 (Prostate cancer), 10 µM; read-out: GI%
How it was run: as §1

NCI-H460 = conditions: Homo sapiens
How it was run: as §1

NCI-H226 = conditions: Homo sapiens
How it was run: as §1

A498 = conditions: Homo sapiens
How it was run: as §1

HOP-92 = conditions: Homo sapiens; HOP-92 (Non-small cell lung cancer), 10 µM; read-out: GI%
How it was run: as §1

HOP-62 = conditions: Homo sapiens
How it was run: as §1

OVCAR-3 = conditions: Homo sapiens
How it was run: as §1

SK-MEL-5 = conditions: Homo sapiens
How it was run: as §1

NCI-H23 = conditions: Homo sapiens
How it was run: as §1

SF-268 = conditions: Homo sapiens
How it was run: as §1

SNB-75 = conditions: Homo sapiens
How it was run: as §1

HT29 = conditions: Homo sapiens, HT-29
How it was run: as §1

NCI/ADR-RES = conditions: Homo sapiens
How it was run: as §1

SF-295 = conditions: Homo sapiens
How it was run: as §1

RXF 393 = conditions: Homo sapiens
How it was run: as §1

HCT-15 = conditions: Homo sapiens
How it was run: as §1

SN12C = conditions: Homo sapiens; SN12C, Renal cancer; five-dose
How it was run: as §1

SK-OV-3 = conditions: Homo sapiens
How it was run: as §1

MDA-MB-435 = conditions: Homo sapiens
How it was run: as §1

NCI-H522 = conditions: Homo sapiens
How it was run: as §1

COc1ccc(-c2nc3cc(C(=O)NN=Cc4cccc(OC)c4O)ccc3[nH]2)cc1 [8k, N'-(2-Hydroxy-3-methoxybenzylidene)-2-(4-methoxyphenyl)-1H-benzo[d]imidazole-5-carbohydrazide]
inhibition at 10 µM (CCRF-CEM; CCRF-CEM (Leukemia), 10 µM, read-out: GI%): > 100%
GI50 (CCRF-CEM; CCRF-CEM, Leukemia, five-dose): 1.05 µM
inhibition at 10 µM (SK-MEL-28; SK-MEL-28 (Melanoma), 10 µM, read-out: GI%): > 100%
GI50 (SK-MEL-28; SK-MEL-28, Melanoma, five-dose): 3.32 µM
inhibition at 10 µM (U251; U251 (CNS cancer), 10 µM, read-out: GI%): 97.3%
GI50 (U251; U251, CNS cancer, five-dose): 2.17 µM
inhibition at 10 µM (KM12; KM12 (Colon cancer), 10 µM, read-out: GI%): > 100%
GI50 (KM12; KM12, Colon cancer, five-dose): 2.45 µM
inhibition at 10 µM (MDA-MB-231/ATCC; MDA-MB-231/ATCC (Breast cancer), 10 µM, read-out: GI%): 97.7%
GI50 (MDA-MB-231/ATCC; MDA-MB-231/ATCC, Breast cancer, five-dose): 2.8 µM
inhibition at 10 µM (IGROV1; IGROV1 (Ovarian cancer), 10 µM, read-out: GI%): 84.8%
GI50 (IGROV1; IGROV1, Ovarian cancer, five-dose): 3.52 µM
inhibition at 10 µM (PC-3): 87.9%
inhibition at 10 µM (NCI-H460; NCI-H460 (Non-small cell lung cancer), 10 µM, read-out: GI%): > 100%
GI50 (NCI-H460; NCI-H460, Non-small cell lung cancer, five-dose): 3.27 µM
inhibition at 10 µM (NCI-H226; NCI-H226 (Non-small cell lung cancer), 10 µM, read-out: GI%): 82.2%
GI50 (NCI-H226; NCI-H226, Non-small cell lung cancer, five-dose): 3.14 µM
inhibition at 10 µM (A498; A498 (Renal cancer), 10 µM, read-out: GI%): < 5%
GI50 (A498; A498, Renal cancer, five-dose): > 100 µM
inhibition at 10 µM (HOP-92): 70.4%
inhibition at 10 µM (HOP-62; HOP-62 (Non-small cell lung cancer), 10 µM, read-out: GI%): > 100%
GI50 (HOP-62; HOP-62, Non-small cell lung cancer, five-dose): 3.11 µM
inhibition at 10 µM (OVCAR-3; OVCAR-3 (Ovarian cancer), 10 µM, read-out: GI%): > 100%
GI50 (OVCAR-3; OVCAR-3, Ovarian cancer, five-dose): 1.25 µM
inhibition at 10 µM (SK-MEL-5; SK-MEL-5 (Melanoma), 10 µM, read-out: GI%): > 100%
GI50 (SK-MEL-5; SK-MEL-5, Melanoma, five-dose): 2.86 µM
inhibition at 10 µM (NCI-H23; NCI-H23 (Non-small cell lung cancer), 10 µM, read-out: GI%): > 100%
GI50 (NCI-H23; NCI-H23, Non-small cell lung cancer, five-dose): 2.14 µM
inhibition at 10 µM (SF-268; SF-268 (CNS cancer), 10 µM, read-out: GI%): > 100%
GI50 (SF-268; SF-268, CNS cancer, five-dose): 2.16 µM
inhibition at 10 µM (SNB-75; SNB-75 (CNS cancer), 10 µM, read-out: GI%): 91%
GI50 (SNB-75; SNB-75, CNS cancer, five-dose): 3.05 µM
inhibition at 10 µM (HT29; HT29 (Colon cancer), 10 µM, read-out: GI%): > 100%
GI50 (HT29; HT29, Colon cancer, five-dose): 3.67 µM
inhibition at 10 µM (NCI/ADR-RES; NCI/ADR-RES (Ovarian cancer), 10 µM, read-out: GI%): 28.1%
GI50 (NCI/ADR-RES; NCI/ADR-RES, Ovarian cancer, five-dose): > 100 µM
inhibition at 10 µM (SF-295; SF-295 (CNS cancer), 10 µM, read-out: GI%): 96.4%
GI50 (SF-295; SF-295, CNS cancer, five-dose): 2.48 µM
inhibition at 10 µM (RXF 393; RXF 393 (Renal cancer), 10 µM, read-out: GI%): > 100%
GI50 (RXF 393; RXF 393, Renal cancer, five-dose): 2.58 µM
inhibition at 10 µM (HCT-15; HCT-15 (Colon cancer), 10 µM, read-out: GI%): 78.1%
GI50 (HCT-15; HCT-15, Colon cancer, five-dose): 3.35 µM
GI50 (SN12C): 3.81 µM
inhibition at 10 µM (SK-OV-3; SK-OV-3 (Ovarian cancer), 10 µM, read-out: GI%): > 100%
GI50 (SK-OV-3; SK-OV-3, Ovarian cancer, five-dose): 4.31 µM
inhibition at 10 µM (MDA-MB-435; MDA-MB-435 (Melanoma), 10 µM, read-out: GI%): 76%
GI50 (MDA-MB-435; MDA-MB-435, Melanoma, five-dose): 6.2 µM
inhibition at 10 µM (NCI-H522; NCI-H522 (Non-small cell lung cancer), 10 µM, read-out: GI%): > 100%
GI50 (NCI-H522; NCI-H522, Non-small cell lung cancer, five-dose): 2.98 µM

Source: PMC10893631, “Receptor-based pharmacophore modeling, molecular docking, synthesis and biological evaluation of novel VEGFR-2, FGFR-1, and BRAF multi-kinase inhibitors” (BMC Chemistry, 2024)
